Results on 21 compounds are retold here after paper PMC9964404, “Molecular Modeling and In Vitro Evaluation of Piplartine Analogs against Oral Squamous Cell Carcinoma” (Molecules, 2023).

Read-outs that look alike come from different tables or passages of the source. Where only a bound is given, the exact number is not on record here.

Data set [1] has as its system SCC9 cells. Put plainly: MTT cell viability (cytotoxicity) assay, SCC9. Format: cell-based, human. On the procedure: (§1) SCC cells (SCC9 and SCC4), derived from human tongue OSCC, were obtained by (ATCC® CRL-1629 and CRL-1624) and maintained in DMEM/F12 1:1 medium (Dulbecco’s modified Eagle’s medium and Ham’s F12 medium, Gibco (Thermo Fisher, Waltham, MA, USA), supplemented with 10% (v/v) FBS (Fetal Bovine Serum; Invitrogen, Thermo Fisher, Waltham, MA, USA) and 400 ng/mL hydrocortisone (Sigma-AldrichCo., St. Louis, MO, USA). Primary normal gingival fibroblast human (PCS201 018TM) and other tumor cells B16-F10 (CRL-6475), Hep G2 (HB-8065), and HT-29 (HTB-38) were also obtained at ATCC and maintained in DMEM supplemented with 10% (v/v) FCS. Cells were cultured in a humidified environment containing 5% CO2 at 37 °C. For all experiments, the compounds were solubilized in DMSO (Sigma-Aldrich) for a final concentration of 100 mM. From this dilution, other concentrations were made to carry out the cell viability assay. Carboplatin (Fauldcarbo®; Libbs Farmacêutica, São Paulo, SP, Brazil) was used as a control antitumor compound.
(§2) The viability of cancer cells and primary fibroblasts was tested using the MTT assay as described in MACHADO et al., 2021 [49]. Briefly, cancer cells (5 × 10^3 cells/well) were plated in duplicate in a 96-well plate, as indicated. DMSO was diluted in culture medium at the same concentrations and was used as a negative control, representing 100% cell viability. After 48 h of treatment, cells were incubated for 3.5 h with 5 mg/mL of MTT reagent (3,4,5-dimethiazol-2,5-diphenyltetrazoliumbromide) (Sigma-Aldrich Co., St. Louis, MO, USA) diluted in culture medium. Subsequently, the formazan crystals were dissolved by MTT solvent (50% Methanol and 50% DMSO), and the absorbance was read at 560 nm using the EPOCH microplate spectrophotometer (BioTekInstruments, Winooski, VT, USA).
(§3) IC50 values for the MTT assay were obtained by non-linear regression using GraphPad Prism 5.0 software (GraphPad, San Diego, CA, USA) from at least three independent experiments. Data are presented as means, ± standard deviation (SD). A log dose response (inhibitor) vs. response curve using the least square method was used to determine the IC50 and SD of the data. The selectivity index was calculated as: S.I. = IC50 of the compound in fibroblasts/IC50 of the same compound in tumor cells.

The subject of data set [2] is Primary Gingival Fibroblast. The data set is described as follows: MTT cell viability assay, normal fibroblasts. Format: cell-based, human. To be noted: 48 h treatment. As for the experimental part:
as §1, §2, §3
Background: Tetrazolium dyes change colour on reduction, which living cells bring about.

Data set [3] relates to SCC4 cells. Put plainly: MTT cell viability assay, SCC4. Format: cell-based, human. As for the experimental part:
as §1, §2, §3

The subject of data set [4] is Oral Tumor Cells (SCC9, SCC4). The data set is described as follows: MTT cell viability assay, average of OSCC lines SCC9 and SCC4. Format: cell-based, human. As for the experimental part: as §1, §2
IC50 values for the MTT assay were obtained by non-linear regression using GraphPad Prism 5.0 software (GraphPad, San Diego, CA, USA) from at least three independent experiments. […] The selectivity index was calculated as: S.I. = IC50 of the compound in fibroblasts/IC50 of the same compound in tumor cells.

The subject of data set [5] is mouse erythrocytes. Details: method as in PMID 16163826. As to conditions: cited from earlier work.
Setting [6] is: Homo sapiens, SCC-9, 48 h treatment, MTT, read-out: SCC9 IC50.
Where [7] appears, read: Homo sapiens, SCC-9, 48 h treatment, MTT, read-out: SCC9 IC50 (µg/mL).
Setting [8] is: Homo sapiens, SCC-9, 48 h treatment, MTT, N.D. = not determined, not toxic to SCC cells, read-out: SCC9 IC50 (class N.D.).
[9] abbreviates: Homo sapiens, Fibroblast, read-out: Primary Gingival Fibroblast IC50.
Setting [10] is: Homo sapiens, Fibroblast, read-out: Primary Gingival Fibroblast IC50 (µg/mL).
Setting [11] is: Homo sapiens, SCC-4, 48 h treatment, calculated as in Table 1, no cytotoxic effect in SCC4, read-out: SCC4 IC50 (class N.D.).

Take `COc1cc(C(=O)O)cc(OC)c1OC` [3,4,5-Trimethoxybenzoic acid]: the “cytotoxic activity against SCC9 cells (in words)” value (“cytotoxic activity” for short) in data set [1] is “inactive”. For the same compound, the IC50 in data set [1] (Homo sapiens, SCC-9, 48 h, read-out: SCC9 IC50 (class N.D.)) is greater than 1000 µM.
Take `N.N.O=C([O-])C1(C(=O)[O-])CCC1.[Pt+2]` [Carboplatin, reference compound]: the “SCC9 IC50” value in data set [1] (48 h treatment, MTT) is reported as 77.37 µg/mL. For the same compound, the IC50 in data set [1] (48 h treatment, MTT, read-out: SCC9 IC50) was determined as 208 µM; in data set [2] (read-out: Primary Gingival Fibroblast IC50) it was 512 µM; in data set [3] (48 h treatment, read-out: SCC4 IC50) it was 175 µM; in data set [4] it was 192 µM. Besides, the “Primary Gingival Fibroblast IC50” value in data set [2] amounted to 190.19 µg/mL.
For `COC(=O)c1cc(OC)c(OC)c(OC)c1` [Compound 1, Methyl 3,4,5–trimethoxybenzoate], the IC50 in data set [1] (setting [6]) came out at 858 µM; in data set [1] (setting [7]), 194 µg/mL.
For `CCOC(=O)c1cc(OC)c(OC)c(OC)c1` [Compound 2, Ethyl 3,4,5–trimethoxybenzoate], the melting point (commonly the temperature, or range, at which the solid turns liquid) lay within 53 to 54 °C. The “cytotoxic activity” value in data set [1] is given as “no cytotoxic activity”. In addition, the IC50 in data set [1] (setting [8]) was greater than 1000 µM.
In turn, `CCCOC(=O)c1cc(OC)c(OC)c(OC)c1` [Compound 3, Propyl 3,4,5–trimethoxybenzoate] returned a melting point of 34 to 35 °C. Besides, the IC50 in data set [1] (setting [6]) was found to be 299 µM. For the same compound, in data set [1] (setting [7]), the IC50 was determined as 76 µg/mL. Moreover, the IC50 in data set [2] (setting [9]) was determined as 1260 µM. The IC50 in data set [2] (setting [10]) worked out at 319 µg/mL. The IC50 in data set [3] (setting [11]) is greater than 1000 µM.
With `COc1cc(C(=O)OC(C)C)cc(OC)c1OC` [Compound 4, Isopropyl 3,4,5–trimethoxybenzoate], the IC50 in data set [1] (setting [6]) was determined as 373 µM; in data set [1] (setting [7]), 94.9 µg/mL; in data set [2] (setting [9]) it was 1800 µM; in data set [2] (setting [10]) it was 456 µg/mL; in data set [3] (Homo sapiens, SCC-4, 48 h treatment, read-out: SCC4 IC50), 454 µM; in data set [4] (Homo sapiens), 376 µM.
Take `CCCCOC(=O)c1cc(OC)c(OC)c(OC)c1` [Compound 5, Butyl 3,4,5–trimethoxybenzoate]: the IC50 in data set [1] (setting [6]) was 204 µM; in data set [1] (setting [7]) it was 54.8 µg/mL; in data set [2] (setting [9]) it was 510 µM; in data set [2] (setting [10]), 137 µg/mL.
In the case of `COc1cc(C(=O)OCCC(C)C)cc(OC)c1OC` [Compound 6, Isopentyl 3,4,5–trimethoxybenzoate], the IC50 in data set [1] (setting [6]) stood at 160 µM; in data set [1] (setting [7]) it was 45.2 µg/mL; in data set [2] (setting [9]), 570 µM; in data set [2] (setting [10]), 161 µg/mL.
In the same order, the values of `CCCCCOC(=O)c1cc(OC)c(OC)c(OC)c1` [Compound 7, Pentyl 3,4,5–trimethoxybenzoate] are 258 µM, 72.7 µg/mL, 418 µM and 118 µg/mL.
The compound `CCCCCCCCCCOC(=O)c1cc(OC)c(OC)c(OC)c1` [Compound 8, Decyl 3,4,5–trimethoxybenzoate] displayed a melting point of 49 to 50 °C. The IC50 in data set [1] (setting [6]) was 955 µM. In data set [1] (setting [7]), the IC50 was determined as 337 µg/mL.
In the case of `COc1cc(C(=O)OCc2ccc(Br)cc2)cc(OC)c1OC` [Compound 10, 4-Bromo-benzyl 3,4,5–trimethoxybenzoate], the melting point was in the range of 104 to 105 °C. The “cytotoxic activity” value in data set [1] is reported as “no cytotoxic activity”. Besides, the IC50 in data set [1] (setting [8]) is greater than 1000 µM.
On to `COc1cc(C(=O)OCc2ccc3ccccc3c2)cc(OC)c1OC` [Compound 11, 2-Methylnaphthalene 3,4,5–trimethoxybenzoate], for which the melting point lay in the range of 84 to 85 °C. Further, in data set [1] (setting [6]), the IC50 was 310 µM. Further, the IC50 in data set [1] (setting [7]) was 109 µg/mL. Besides, in data set [2] (setting [9]), the IC50 was found to be 3410 µM. Further, in data set [2] (setting [10]), the IC50 was 1200 µg/mL.
Turning to `COc1cc(C(=O)OC(c2ccccc2)c2ccccc2)cc(OC)c1OC` [Compound 12, Diphenyl 3,4,5–trimethoxybenzoate], the melting point lay within 57 to 58 °C. The IC50 in data set [1] (setting [6]) came out at 830 µM. The IC50 in data set [1] (setting [7]) turned out to be 314 µg/mL.
`CCCCNC(=O)c1cc(OC)c(OC)c(OC)c1` [Compound 13, N-Butyl-3,4,5–trimethoxybenzamide]: the melting point lay within 115 to 116 °C. Further, the IC50 in data set [1] (setting [6]) worked out at 469 µM. The IC50 in data set [1] (setting [7]) worked out at 125 µg/mL. Also, the IC50 in data set [2] (setting [9]) was 2360 µM. In addition, in data set [2] (setting [10]), the IC50 was found to be 631 µg/mL. Further, in data set [3] (setting [11]), the IC50 was greater than 1000 µM.
As for `COc1cc(C(=O)NCC(C)C)cc(OC)c1OC` [Compound 14, N-Isobutyl-3,4,5–trimethoxybenzamide], the melting point was 118 to 119 °C. Also, the IC50 in data set [1] (setting [8]) was greater than 1000 µM.
On the same counts, the results for `COc1cc(C(=O)NC2CCCCC2)cc(OC)c1OC` [Compound 15, N-Cyclohexyl-3,4,5–trimethoxybenzamide] are 179 to 180 °C and greater than 1000 µM.
In the same order, the values of `COc1cc(C(=O)NCc2ccc(O)cc2)cc(OC)c1OC` [Compound 16, N-4-Hydroxybenzyl-3,4,5–trimethoxybenzamide] are 227 to 229 °C and greater than 1000 µM.
On the same counts, the results for `COc1cc(C(=O)NCc2ccccc2)cc(OC)c1OC` [Compound 17, N-Benzyl-3,4,5–trimethoxybenzamide] are 138 to 139 °C and greater than 1000 µM.
With `COc1cc(C(=O)NCc2ccc(F)cc2)cc(OC)c1OC` [Compound 18, N-(4-Fluorobenzyl)-3,4,5–trimethoxybenzamide], the melting point fell in the range of 131 to 132 °C. The “cytotoxic activity” value in data set [1] is “inactive”. For the same compound, the IC50 in data set [1] (setting [8]) was greater than 1000 µM.
`COc1cc(C(=O)NCc2ccc(Cl)cc2)cc(OC)c1OC` [Compound 19, N-4-Chlorobenzyl-3,4,5–trimethoxybenzamide] gave a melting point of 157 to 158 °C. Further, in data set [1] (setting [8]), the IC50 is greater than 1000 µM.
As for `COc1cc(/C=C/C(=O)N2CCC=CC2=O)cc(OC)c1OC` [piplartine], the hemolytic activity result in data set [5] was “did not reveal hemolytic activity”.
